From ChEMBL document CHEMBL1159248, “Tyrosinase inhibitors from Bolivian medicinal plants” (J Nat Prod, 1995)
The source made the active and inactive calls. The rule behind the calls is not given here.

Key:
[1] = biological target: T1, Tyrosinase (Agaricus bisporus) (UniProt O42713); experiment: Inhibition of mushroom tyrosinase assessed as L-3,4-dihydroxyphenylalanine oxidation
T1 sequence (whole entry): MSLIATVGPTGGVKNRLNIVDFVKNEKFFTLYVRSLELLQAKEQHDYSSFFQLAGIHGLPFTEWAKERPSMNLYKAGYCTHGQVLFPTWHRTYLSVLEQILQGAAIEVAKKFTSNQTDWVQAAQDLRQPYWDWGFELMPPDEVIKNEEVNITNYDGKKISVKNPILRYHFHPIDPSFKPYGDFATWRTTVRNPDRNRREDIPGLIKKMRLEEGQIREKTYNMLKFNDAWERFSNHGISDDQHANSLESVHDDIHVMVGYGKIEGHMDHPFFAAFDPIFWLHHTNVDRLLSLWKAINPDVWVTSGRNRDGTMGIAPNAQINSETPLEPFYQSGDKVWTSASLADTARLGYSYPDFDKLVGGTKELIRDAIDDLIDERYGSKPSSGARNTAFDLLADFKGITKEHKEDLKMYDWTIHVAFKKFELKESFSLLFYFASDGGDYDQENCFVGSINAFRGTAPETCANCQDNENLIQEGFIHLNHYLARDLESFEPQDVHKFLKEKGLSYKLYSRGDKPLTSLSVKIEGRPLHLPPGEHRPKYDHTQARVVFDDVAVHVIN

[2] = biological target: T1, Tyrosinase (Agaricus bisporus); experiment: Competitive inhibition of mushroom tyrosinase assessed as L-3,4-dihydroxyphenylalanine oxidation
[3] = biological target: T1, Tyrosinase (Agaricus bisporus); experiment: Inhibition of mushroom tyrosinase assessed as L-3,4-dihydroxyphenylalanine at 100 ug/ml

| SMILES | ID50 [1] [µM] | Activity [2] | inhibition [3] [%] |
| --- | --- | --- | --- |
| O=C(O[C@H]1O[C@@H]2COC(=O)c3cc(O)c(O)c(O)c3-c3c(cc(O)c(O)c3O)C(=O)O[C@H]2[C@@H]2OC(=O)c3cc(O)c(O)c(O)c3-c3c(cc(O)c(O)c3O)C(=O)O[C@@H]12)c1cc(O)c(O)c(Oc2c(C(=O)O[C@H]3O[C@@H]4COC(=O)c5cc(O)c(O)c(O)c5-c5c(cc(O)c(O)c5O)C(=O)O[C@H]4[C@@H]4OC(=O)c5cc(O)c(O)c(O)c5-c5c(cc(O)c(O)c5O)C(=O)O[C@@H]34)cc(O)c(O)c2O)c1 | 61 |  |  |
| O=C(/C=C/c1ccc(O)cc1)OC[C@H]1O[C@@H](Oc2cc(O)c3c(=O)c(O)c(-c4ccc(O)cc4)oc3c2)[C@H](O)[C@@H](O)[C@@H]1O | 390 |  |  |
| O=C(O)c1ccc(O)cc1 | 1900 | Active |  |
| COc1cc(/C=C/C(=O)OC[C@H]2O[C@@H](Oc3cc(O)c4c(=O)c(O)c(-c5ccc(O)cc5)oc4c3)[C@H](O)[C@@H](O)[C@@H]2O)ccc1O | 440 |  |  |
| O=c1c(O)c(-c2ccc(O)c(O)c2)oc2cc(O)cc(O)c12 | 70 | Active |  |
| O=c1cc(-c2ccc(O[C@@H]3O[C@H](CO)[C@@H](O)[C@H](O)[C@H]3O)c(O)c2)oc2cc(O)cc(O)c12 |  |  | 100 |
